Reference: ChEMBL document CHEMBL5223099, “Covalent cannabinoid receptor ligands - structural insight and selectivity challenges” (RSC Med Chem, 2022)

Experiments:
[1] = target: T1, Cannabinoid receptor 2 (Homo sapiens, UniProt P34972); test: Antagonist activity at human CB2R assessed as beta arrestin-2 recruitment by measuring inhibition constant
[2] = target: T2, Cannabinoid receptor 1 (Homo sapiens, UniProt P21554); test: Antagonist activity at human CB1R assessed as beta arrestin-2 recruitment by measuring inhibition constant
[3] = target: T1, Cannabinoid receptor 2; test: Binding affinity to wild type human CB2R expressed in HEK293 cells assessed as inhibition constant; format: cell-based
[4] = target: T2, Cannabinoid receptor 1; test: Binding affinity to CB1R (unknown origin) assessed as inhibition constant; details: filed as antagonist
[5] = target: T2, Cannabinoid receptor 1; test: Displacement of [3H]- CP55940 from human CB1R expressed in HEK293F cells assessed as inhibition constant incubated for 1 hr by scintillation counter analysis; format: cell-based; details: filed as antagonist
[6] = target: Cannabinoid receptor 1 (Rattus norvegicus, UniProt P20272); test: Antagonist activity at rat CB1R expressed in CHO cells assessed as inhibition of forskolin stimulated cyclic AMP production; format: cell-based
Chain of Cannabinoid receptor 1 (Rattus norvegicus, UniProt P20272) (P20272 whole entry): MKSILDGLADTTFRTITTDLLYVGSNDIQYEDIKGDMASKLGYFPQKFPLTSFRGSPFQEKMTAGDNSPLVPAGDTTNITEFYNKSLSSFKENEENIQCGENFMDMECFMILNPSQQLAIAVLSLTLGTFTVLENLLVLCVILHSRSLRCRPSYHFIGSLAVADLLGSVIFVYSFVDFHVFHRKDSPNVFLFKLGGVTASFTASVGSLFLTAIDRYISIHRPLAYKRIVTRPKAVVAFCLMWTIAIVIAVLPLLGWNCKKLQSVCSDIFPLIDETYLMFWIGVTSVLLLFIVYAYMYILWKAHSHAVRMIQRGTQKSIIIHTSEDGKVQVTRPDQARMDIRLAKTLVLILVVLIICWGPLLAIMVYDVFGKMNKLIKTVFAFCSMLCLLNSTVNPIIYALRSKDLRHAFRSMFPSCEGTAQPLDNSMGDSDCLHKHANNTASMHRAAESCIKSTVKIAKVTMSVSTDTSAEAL

T2 sequence (P21554 whole entry): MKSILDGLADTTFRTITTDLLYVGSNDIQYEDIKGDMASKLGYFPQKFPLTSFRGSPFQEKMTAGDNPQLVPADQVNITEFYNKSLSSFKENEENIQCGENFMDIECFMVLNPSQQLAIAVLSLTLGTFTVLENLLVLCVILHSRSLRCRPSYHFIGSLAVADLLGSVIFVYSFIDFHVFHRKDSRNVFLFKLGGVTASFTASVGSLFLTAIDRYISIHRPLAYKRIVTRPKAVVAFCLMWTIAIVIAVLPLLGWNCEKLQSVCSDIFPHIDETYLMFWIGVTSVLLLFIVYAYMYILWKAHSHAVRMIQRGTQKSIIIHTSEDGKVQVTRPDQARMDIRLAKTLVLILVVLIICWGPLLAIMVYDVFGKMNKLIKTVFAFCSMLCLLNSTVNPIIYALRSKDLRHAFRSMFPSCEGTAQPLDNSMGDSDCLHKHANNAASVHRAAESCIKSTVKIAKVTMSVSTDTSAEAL
T1 sequence (P34972 whole entry): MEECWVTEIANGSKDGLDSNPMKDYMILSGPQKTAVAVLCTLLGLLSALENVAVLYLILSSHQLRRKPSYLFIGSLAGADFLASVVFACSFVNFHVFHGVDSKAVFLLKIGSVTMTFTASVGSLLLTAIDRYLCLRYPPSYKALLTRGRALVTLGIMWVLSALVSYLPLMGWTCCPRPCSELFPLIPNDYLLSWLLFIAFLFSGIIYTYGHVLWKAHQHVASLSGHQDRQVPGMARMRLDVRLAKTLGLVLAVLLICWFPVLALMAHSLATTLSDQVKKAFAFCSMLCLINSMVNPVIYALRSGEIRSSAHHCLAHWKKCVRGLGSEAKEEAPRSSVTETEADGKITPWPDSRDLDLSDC

Cc1c(C(=O)NC23CC4CC(CC(C4)C2)C3)nn(CCCCCO)c1-c1ccccc1
Ki [1]: 0.075 nM | Ki [2]: 13 nM

CCCCCn1nc(C(=O)NC23CC4CC(CC(C4)C2)C3)c(C)c1-c1ccccc1
Ki [3]: 0.63 nM

Cc1c(C(=O)NC23CC4CC(CC(C4)C2)C3)nn(CCCCSC#N)c1-c1ccccc1
K [4]: 5.76 nM

Cc1c(C(=O)NN2CCCCC2)nn(-c2ccc(Cl)cc2Cl)c1-c1ccc(C#CCCO[N+](=O)[O-])cc1
K [5]: 5.1 nM

CCCCCCC(C)(C)c1cc(OC)c([C@H]2C=C(CO)[C@H]3C[C@@H]2C3(C)C)c(OC)c1
Ki [6]: > 10000 nM
